# Measured values reported in article PMC4467398, “Preclinical antitumor activity of ST7612AA1: a new oral thiol-based histone deacetylase (HDAC) inhibitor” (Oncotarget, 2014).
# Tested on: DOHH2 and TMD8 DLBCL cells
# Test: Gene expression profiling (HumanHT-12 v4 BeadChip, limma), ST7612AA1 300 nM 8 hrs vs DMSO
# Type: cell-based, human
# Conditions: 300 nM 8 hrs
structure (smiles),measurement,value
CC(=O)SCCCCC[C@H](NC(=O)[C@H]1CCC(=O)N1)C(=O)Nc1ccccc1 [ST7612AA1],AveExpr.ST7612 FAM167A (probe ILMN_3248511),7.13E-01
same,AveExpr.ST7612 FBXO18 (probe ILMN_1729430),7.97E-01
same,AveExpr.ST7612 FCGRT (probe ILMN_1705302),6.92E-01
same,AveExpr.ST7612 FGD2 (probe ILMN_2115005),7.14E-01
same,AveExpr.ST7612 FGF9 (probe ILMN_1762531),7.84E-01
same,AveExpr.ST7612 FHL1 (probe ILMN_1805842),7.76E-01
same,AveExpr.ST7612 FLJ22795 (probe ILMN_2150802),8.56E-01
same,AveExpr.ST7612 FOXC1 (probe ILMN_1738401),8.63E-01
same,AveExpr.ST7612 FOXO1 (probe ILMN_1738816),8.61E-01
same,AveExpr.ST7612 FOXO4 (probe ILMN_1712095),6.93E-01
same,AveExpr.ST7612 FSD1 (probe ILMN_1813490),7.25E-01
same,AveExpr.ST7612 FUCA1 (probe ILMN_1752728),8.57E-01
same,AveExpr.ST7612 G6PD (probe ILMN_1697559),6.93E-01
same,AveExpr.ST7612 GABARAPL2 (probe ILMN_1796458),7.62E-01
same,AveExpr.ST7612 GAMT (probe ILMN_1756469),8.74E-01
same,AveExpr.ST7612 GATM (probe ILMN_1729180),7.75E-01
same,AveExpr.ST7612 GCH1 (probe ILMN_1812759),7.11E-01
same,AveExpr.ST7612 GOLGB1 (probe ILMN_1747935),7.13E-01
same,AveExpr.ST7612 GPT2 (probe ILMN_1684158),8.12E-01
same,AveExpr.ST7612 GRN (probe ILMN_1724250),8.24E-01
same,AveExpr.ST7612 HABP4 (probe ILMN_2107991),7.82E-01
same,AveExpr.ST7612 HAGH (probe ILMN_1772731),8.84E-01
same,AveExpr.ST7612 HERC1 (probe ILMN_1786211),7.40E-01
same,AveExpr.ST7612 HERPUD1 (probe ILMN_2374159),8.50E-01
same,AveExpr.ST7612 HEY1 (probe ILMN_1788203),8.91E-01
same,AveExpr.ST7612 HEY2 (probe ILMN_1682034),7.56E-01
same,AveExpr.ST7612 HIST1H1C (probe ILMN_1757406),8.24E-01
same,AveExpr.ST7612 HIST2H2AA3 (probe ILMN_2144426),8.03E-01
same,AveExpr.ST7612 HLA-DPA1 (probe ILMN_1772218),8.12E-01
same,AveExpr.ST7612 HLA-DQA1 (probe ILMN_1808405),8.25E-01
same,AveExpr.ST7612 HLA-DRB4 (probe ILMN_1752592),7.27E-01
same,AveExpr.ST7612 HLA-E (probe ILMN_1765258),8.07E-01
same,AveExpr.ST7612 HLTF (probe ILMN_1673820),7.48E-01
same,AveExpr.ST7612 HOOK2 (probe ILMN_1682147),7.36E-01
same,AveExpr.ST7612 HSPA1B (probe ILMN_1660436),7.16E-01
same,AveExpr.ST7612 ID1 (probe ILMN_1664861),7.75E-01
same,AveExpr.ST7612 IFFO1 (probe ILMN_2348268),8.07E-01
same,AveExpr.ST7612 IGSF3 (probe ILMN_1704353),8.50E-01
same,AveExpr.ST7612 ITGB1 (probe ILMN_1714820),7.06E-01
same,AveExpr.ST7612 ITPKA (probe ILMN_1776516),7.10E-01
same,AveExpr.ST7612 JAK1 (probe ILMN_1793384),7.91E-01
same,AveExpr.ST7612 KLHL5 (probe ILMN_1706687),8.05E-01
same,AveExpr.ST7612 KLRAQ1 (probe ILMN_3271092),7.11E-01
same,AveExpr.ST7612 LCMT1 (probe ILMN_1688452),7.21E-01
same,AveExpr.ST7612 LCMT1 (probe ILMN_2336186),7.52E-01
same,AveExpr.ST7612 LMNA (probe ILMN_1737394),7.98E-01
same,AveExpr.ST7612 LOC151162 (probe ILMN_3238058),7.72E-01
same,AveExpr.ST7612 LOC253039 (probe ILMN_3236498),8.10E-01
same,AveExpr.ST7612 LOC283683 (probe ILMN_1659327),8.30E-01
same,AveExpr.ST7612 LOC388588 (probe ILMN_1749834),7.07E-01
same,AveExpr.ST7612 LOC654191 (probe ILMN_1762308),7.84E-01
same,AveExpr.ST7612 LOC727935 (probe ILMN_1691616),7.14E-01
same,AveExpr.ST7612 LOC728014 (probe ILMN_1711699),8.58E-01
same,AveExpr.ST7612 LOC729495 (probe ILMN_3297510),7.45E-01
same,AveExpr.ST7612 LOC730101 (probe ILMN_3305735),7.41E-01
same,AveExpr.ST7612 LOC730415 (probe ILMN_3228688),6.95E-01
same,AveExpr.ST7612 LOC731314 (probe ILMN_1785756),8.31E-01
same,AveExpr.ST7612 LOC100128163 (probe ILMN_3182893),7.83E-01
same,AveExpr.ST7612 LOC100131727 (probe ILMN_3292990),7.73E-01
same,AveExpr.ST7612 LOC100133583 (probe ILMN_3214389),8.94E-01
same,AveExpr.ST7612 LOC100133678 (probe ILMN_3249667),8.11E-01
same,AveExpr.ST7612 LOC100134361 (probe ILMN_3241081),8.59E-01
same,AveExpr.ST7612 LRCH4 (probe ILMN_2157075),8.54E-01
same,AveExpr.ST7612 LRRC1 (probe ILMN_1755383),7.83E-01
same,AveExpr.ST7612 LTA4H (probe ILMN_1690342),7.50E-01
same,AveExpr.ST7612 LYRM5 (probe ILMN_1744534),7.90E-01
same,AveExpr.ST7612 LYSMD4 (probe ILMN_2159859),6.95E-01
same,AveExpr.ST7612 MAP1LC3B (probe ILMN_1703244),7.73E-01
same,AveExpr.ST7612 MAP2K1 (probe ILMN_1694240),7.15E-01
same,AveExpr.ST7612 MAPRE2 (probe ILMN_1695276),7.72E-01
same,AveExpr.ST7612 MARCKSL1 (probe ILMN_1714433),8.47E-01
same,AveExpr.ST7612 MAST3 (probe ILMN_1738749),7.21E-01
same,AveExpr.ST7612 MNS1 (probe ILMN_2157240),7.07E-01
same,AveExpr.ST7612 MTE (probe ILMN_2136089),8.56E-01
same,AveExpr.ST7612 MYBL1 (probe ILMN_3241046),7.69E-01
